The target in one assay is JAK2 (Homo sapiens (Human), UniProt O60674). The assay can be described thus: Jak biochemical HTRF assay, JAK2. The settings on record: HTRF biochemical assay, recombinant GST-tagged catalytic domain; read-out: JAK2 IC50. On the procedure: Jak Biochemical HTRF Assay Protocol
The ability of compounds to inhibit the activity of JAK1, JAK2, JAK3, and Tyk2 was measured using a recombinant purified GST-tagged catalytic domain for each enzyme (Invitrogen JAK1 #M4290, JAK2 #M4290, JAK3 #M4290, Tyk2 #M4290) in an HTRF format biochemical assay. […] The basic assay protocol is as follows: First, 250 nL of diluted compounds in DMSO were dispensed into the wells of a dry 384-well Black plate (Greiner #781076) using a Labcyte Echo 555 acoustic dispenser. Subsequent reagent additions employed an Agilent Bravo. […] After equilibration, 2 μL of 10×ATP in 1× assay buffer was added to initiate the kinase reaction and the plates were shaken and then incubated at room temperature for 120 minutes. […] Plates were shaken and centrifuged and then incubated 60 minutes at room temperature and then read on a Perkin Elmer Envision (λex=337 nm, λem=665 and 615 nm, TRF delay time=20 μs). HTRF signal=10,000*665 nm reading/615 nm reading. After normalization to untreated controls, the percent inhibition of the HTRF signal at each compound concentration was calculated. The plot of percent inhibition versus the log of compound concentration was fit with a 4-parameter dose response equation to calculate IC50 values.
Final Reaction Conditions were:
Examples of the instant invention were evaluated in JAK1 and JAK2 in vitro binding assays.

For another assay, the target named is JAK1 (Homo sapiens (Human), UniProt P23458). The assay is described as follows: Jak biochemical HTRF assay, JAK1. The settings on record: HTRF biochemical assay, recombinant GST-tagged catalytic domain; read-out: JAK1 IC50.

A word on the IC50: it is the concentration that gives 50% inhibition.

Sequence of JAK2 (O60674 849-1124): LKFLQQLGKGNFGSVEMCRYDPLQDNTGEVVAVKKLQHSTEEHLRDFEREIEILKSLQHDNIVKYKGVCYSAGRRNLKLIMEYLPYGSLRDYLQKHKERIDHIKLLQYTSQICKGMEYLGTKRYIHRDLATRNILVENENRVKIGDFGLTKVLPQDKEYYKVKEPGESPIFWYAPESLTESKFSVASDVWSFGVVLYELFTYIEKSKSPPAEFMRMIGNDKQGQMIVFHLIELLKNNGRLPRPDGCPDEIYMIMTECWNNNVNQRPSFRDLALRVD
Sequence of JAK1 (P23458 875-1153): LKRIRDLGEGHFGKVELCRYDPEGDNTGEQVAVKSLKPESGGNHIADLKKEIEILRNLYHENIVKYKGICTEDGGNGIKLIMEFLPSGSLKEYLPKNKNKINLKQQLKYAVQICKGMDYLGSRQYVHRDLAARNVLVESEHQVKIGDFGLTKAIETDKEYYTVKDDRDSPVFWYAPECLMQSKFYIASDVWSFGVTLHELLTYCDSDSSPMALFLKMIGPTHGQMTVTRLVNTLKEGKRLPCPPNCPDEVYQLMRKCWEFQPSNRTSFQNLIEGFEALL

Regarding `Cc1cc(Nc2nn([C@H]3CCCC[C@@H]3C#N)c3cc[nH]c(=O)c23)ccc1C(C)(C)n1nccn1` [Example 15-32, (1S,2S)-2-[3-({3-methyl-4-[1-methyl-1-(2H-1,2,3-triazol-2-yl)ethyl]phenyl}amino)-4-oxo-4,5-dihydro-1H-pyrazolo[4,3-c]pyridin-1-yl]cyclohexanecarbonitrile], the IC50 was 0.15 nM at JAK2 and 0.26 nM on JAK1.
Turning to `CN(C)[C@@H]1CC[C@H](n2nc(Nc3ccc(Cl)cc3)c3c(=O)[nH]ccc32)[C@@H](C#N)C1` [Example 5-15, (1S,2S,5R)-2-(3-((4-chlorophenyl)amino)-4-oxo-4,5-dihydro-1H-pyrazolo[4,3-c]pyridin-1-yl)-5-(dimethylamino)cyclohexanecarbonitrile], the IC50 at JAK2 stood at 11 nM; at JAK1 it was 0.28 nM.
In the case of `COCCC(C)(C)N1Cc2cc(Nc3nn([C@H]4CCCC[C@@H]4C#N)c4cc[nH]c(=O)c34)ccc2S1(=O)=O` [Example 3-161, (1S,2S)-2-(3-{[2-(3-methoxy-1,1-dimethylpropyl)-1,1-dioxido-2,3-dihydro-1,2-benzisothiazol-5-yl]amino}-4-oxo-4,5-dihydro-1H-pyrazolo[4,3-c]pyridin-1-yl)cyclohexanecarbonitrile], the results for the IC50 on JAK2 and at JAK1 were 0.15 nM and 0.067 nM, respectively.
Turning to `Cc1cc(Nc2nn([C@@H]3CCCCC[C@H]3C#N)c3cc[nH]c(=O)c23)ccc1C(=O)N1CCCC1` (single isomer, unassigned) [Example 15-45, (1R,2R or 1S,2S)-2-(3-{[3-methyl-4-(pyrrolidin-1-ylcarbonyl)phenyl]amino}-4-oxo-4,5-dihydro-1H-pyrazolo[4,3-c]pyridin-1-yl)cycloheptanecarbonitrile], the figures for the IC50 on JAK2 and at JAK1 were 0.41 nM and 0.43 nM, respectively.
Take `C[C@H](NC1CCC(n2nc(Nc3ccc(Cl)cc3)c3c(=O)[nH]ccc32)C(C#N)C1)C1CC1` (stereo in doubt) [Example 4-3, (1R,2R,5R)-2-(3-((4-Chlorophenyl)amino)-4-oxo-4,5-dihydro-1H-pyrazolo[4,3-c]pyridin-1-yl)-5-(((S)-1-cyclopropylethyl)amino)cyclohexanecarbonitrile]: the IC50 at JAK2 worked out at 13 nM; at JAK1 it was 0.3 nM.
The corresponding values for `CC(C)C(c1ccc(Nc2nn([C@H]3CCCC[C@@H]3C#N)c3cc[nH]c(=O)c23)cc1)n1cc(C(=O)OC(C)(C)C)nn1` (single isomer, unassigned) [Example 15-57, tert-butyl 1-{(1S or 1R)-1-[4-({1-[(1S,2S)-2-cyanocyclohexyl]-4-oxo-4,5-dihydro-1H-pyrazolo[4,3-c]pyridin-3-yl}amino)phenyl]-2-methylpropyl}-1H-1,2,3-triazole-4-carboxylate] are 1.2 nM and 0.62 nM.
As for `CC(C)N1Cc2cc(Nc3nn([C@H]4CCCC[C@@H]4C#N)c4cc[nH]c(=O)c34)ccc2S1(=O)=O` [Example 3-79, (1S,2S)-2-(3-{[2-(1-methylethyl)-1,1-dioxido-2,3-dihydro-1,2-benzisothiazol-5-yl]amino}-4-oxo-4,5-dihydro-1H-pyrazolo[4,3-c]pyridin-1-yl)cyclohexanecarbonitrile], the half-inhibitory concentration (IC50) on JAK2 was 0.48 nM; on JAK1, 0.071 nM.
`CN(C(C)(C)C)S(=O)(=O)c1ccc(Nc2nn([C@H]3CCCCC[C@@H]3C#N)c3cc[nH]c(=O)c23)cc1` (single isomer, unassigned) [Example 15-48, N-tert-butyl-4-({1-[(1S,2S or 1R,2R)-2-cyanocycloheptyl]-4-oxo-4,5-dihydro-1H-pyrazolo[4,3-c]pyridin-3-yl}amino)-N-methylbenzenesulfonamide]: the IC50 at JAK2 came out at 18 nM; on JAK1, 19 nM.
On to `COCC(C)(C)N1Cc2cc(Nc3nn([C@H]4CCCC[C@@H]4C#N)c4cc[nH]c(=O)c34)ccc2S1(=O)=O` [Example 3-160, (1S,2S)-2-(3-{[2-(2-methoxy-1,1-dimethylethyl)-1,1-dioxido-2,3-dihydro-1,2-benzisothiazol-5-yl]amino}-4-oxo-4,5-dihydro-1H-pyrazolo[4,3-c]pyridin-1-yl)cyclohexanecarbonitrile], for which the IC50 is 0.19 nM at JAK2 and 0.049 nM at JAK1.
`N#C[C@H]1CCCC[C@@H]1n1nc(Nc2ccc(S(=O)(=O)NC3CCCCC3)cc2)c2c(=O)[nH]ccc21` [Example 3-22, 4-({1-[(1S,2S)-2-cyanocyclohexyl]-4-oxo-4,5-dihydro-1H-pyrazolo[4,3-c]pyridin-3-yl}amino)-N-cyclohexylbenzenesulfonamide]: the IC50 at JAK2 was found to be 1.2 nM; at JAK1 it was 0.4 nM.
Consider `CC(C)(C)OC(=O)NCc1cccc(Nc2nn([C@H]3CCCC[C@@H]3C#N)c3cc[nH]c(=O)c23)c1` [Example 3-16, tert-butyl [3-({1-[(1S,2S)-2-cyanocyclohexyl]-4-oxo-4,5-dihydro-1H-pyrazolo[4,3-c]pyridin-3-yl}amino)benzyl]carbamate], for which the concentration for half-maximal inhibition (IC50) at JAK2 came out at 3.3 nM; on JAK1 it was 1.4 nM.
The corresponding values for `N#C[C@H]1CCCC[C@@H]1n1nc(Nc2ccc(-c3ccno3)cc2)c2c(=O)[nH]ccc21` [Example 15-5, (1S,2S)-2-{3-[(4-isoxazol-5-ylphenyl)amino]-4-oxo-4,5-dihydro-1H-pyrazolo[4,3-c]pyridin-1-yl}cyclohexanecarbonitrile] are 3.2 nM and 0.32 nM.
On to `N#C[C@H]1CCCC[C@@H]1n1nc(Nc2ccc(S(=O)(=O)NCC3CC3)cc2)c2c(=O)[nH]ccc21` [Example 3-20, 4-({1-[(1S,2S)-2-cyanocyclohexyl]-4-oxo-4,5-dihydro-1H-pyrazolo[4,3-c]pyridin-3-yl}amino)-N-(cyclopropylmethyl)benzene-sulfonamide], for which the IC50 at JAK2 turned out to be 0.6 nM; at JAK1, 0.13 nM.
Consider `CCNC(c1ccc(Nc2nn([C@H]3CCC[C@@H]3C#N)c3cc[nH]c(=O)c23)cc1)C(F)(F)F` (single isomer, unassigned) [Example 3-113, (1S,2S)-2-[3-({4-[(1R or 1S)-1-(ethylamino)-2,2,2-trifluoroethyl]phenyl}amino)-4-oxo-4,5-dihydro-1H-pyrazolo[4,3-c]pyridin-1-yl]cyclopentanecarbonitrile], for which the IC50 on JAK2 was 0.31 nM; on JAK1, 0.15 nM.
In the case of `Cc1cc(Nc2nn([C@H]3CCCC[C@@H]3C#N)c3cc[nH]c(=O)c23)ccc1C(=O)N1CCOCC1` [Example 3-68, (1S,2S)-2-(3-{[3-methyl-4-(morpholin-4-ylcarbonyl)phenyl]amino}-4-oxo-4,5-dihydro-1H-pyrazolo[4,3-c]pyridin-1-yl)cyclohexanecarbonitrile], the IC50 on JAK2 was found to be 0.28 nM; at JAK1 it was 0.47 nM.
With `CC1(N2Cc3cc(Nc4nn([C@H]5CCCC[C@@H]5C#N)c5cc[nH]c(=O)c45)ccc3C2=O)CCOCC1` [Example 15-63, (1S,2S)-2-(3-{[2-(4-methyltetrahydro-2H-pyran-4-yl)-1-oxo-2,3-dihydro-1H-isoindol-5-yl]amino}-4-oxo-4,5-dihydro-1H-pyrazolo[4,3-c]pyridin-1-yl)cyclohexanecarbonitrile], the figures for the IC50 on JAK2 and at JAK1 were 0.14 nM and 0.062 nM, respectively.

(Values after US9725445B2, “Cycloalkyl nitrile pyrazolo pyridones as Janus kinase inhibitors” (Merck Sharp & Dohme Corp., priority 2013, dated 2017).)
